Earlier results, collected in patent publication US7074824B2, “Pharmaceutical compositions containing beta-lapachone, or derivatives or analogs thereof, and methods of using same” (Arqule, Inc., priority 2001, dated 2006).

Molecular target: T1, human DNA Topoisomerases I (Homo sapiens, UniProt P11387)
T1 sequence (P11387 1-765): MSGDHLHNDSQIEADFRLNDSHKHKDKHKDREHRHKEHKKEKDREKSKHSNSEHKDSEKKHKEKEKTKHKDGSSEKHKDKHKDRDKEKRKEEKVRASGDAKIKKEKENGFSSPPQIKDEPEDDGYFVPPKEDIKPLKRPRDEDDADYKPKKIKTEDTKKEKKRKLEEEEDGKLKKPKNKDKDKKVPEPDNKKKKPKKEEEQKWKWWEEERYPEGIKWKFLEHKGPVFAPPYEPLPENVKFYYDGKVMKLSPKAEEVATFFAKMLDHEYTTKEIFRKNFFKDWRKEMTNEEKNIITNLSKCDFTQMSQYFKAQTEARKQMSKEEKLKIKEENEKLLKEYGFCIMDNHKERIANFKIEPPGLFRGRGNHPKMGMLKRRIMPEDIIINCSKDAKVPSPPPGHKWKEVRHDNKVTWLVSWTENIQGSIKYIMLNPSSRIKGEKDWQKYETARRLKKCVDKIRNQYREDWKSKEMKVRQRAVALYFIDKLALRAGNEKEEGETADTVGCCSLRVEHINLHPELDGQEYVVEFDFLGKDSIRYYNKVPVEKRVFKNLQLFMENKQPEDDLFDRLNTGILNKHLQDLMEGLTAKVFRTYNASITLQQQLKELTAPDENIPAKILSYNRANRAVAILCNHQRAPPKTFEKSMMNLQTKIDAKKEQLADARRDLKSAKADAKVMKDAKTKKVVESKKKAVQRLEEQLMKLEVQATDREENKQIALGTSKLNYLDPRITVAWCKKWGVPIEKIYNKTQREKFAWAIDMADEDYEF
Conditions: cited from earlier work

## CC1(C)CCC2=C(O1)c1ccccc1C(=O)C2=O [β-lapachone]
  in vitro inhibition: potent in vitro inhibition
